Laboratory results reported in patent US20230227398A1, “MESCALINE DERIVATIVES WITH MODIFIED ACTION” (Mind Medicine, Inc., priority 2021, published 2023).
“Also recorded” adds a separate entry of the source.

Key:
[1] = Duration of action and potency of mescaline derivatives; design: species or system humans; conditions: in vivo
From the text: Together, the in vitro profiles of mescaline and its derivatives represented in FIG. 1 compared with that of psilocin and LSD indicate overall psychedelic properties of all compounds but also differences that likely manifest when used in humans. Accordingly, some mescaline derivatives will exert psychedelic acute effect profiles that are more beneficial to some patients including but not limited to: more overall positive effects, more or less perceptual effects, more emotional effects, less anxiety, less cardio-stimulant effects, less adverse effects, less nausea, longer and also shorter effects among other properties and compared to mescaline. Specifically, taken together the pharmacological data and structural specifics on the substances tested herein some compounds are of particular interest. FE and FP have a relatively short duration of action (<6 hours) compared with mescaline and potentially empathogenic MDMA-like effects.
The compounds represented by FIG. 1 act with shorter, with similar or with longer duration of action in human in comparison to the original mescaline molecule. This is triggered by modification of the molecular structure in FIG. 1.

5-HT2A receptor = 5-HT2A receptor (Homo sapiens, UniProt P28223); conditions: cited from earlier work
Chain of 5-HT2A receptor (P28223 whole entry): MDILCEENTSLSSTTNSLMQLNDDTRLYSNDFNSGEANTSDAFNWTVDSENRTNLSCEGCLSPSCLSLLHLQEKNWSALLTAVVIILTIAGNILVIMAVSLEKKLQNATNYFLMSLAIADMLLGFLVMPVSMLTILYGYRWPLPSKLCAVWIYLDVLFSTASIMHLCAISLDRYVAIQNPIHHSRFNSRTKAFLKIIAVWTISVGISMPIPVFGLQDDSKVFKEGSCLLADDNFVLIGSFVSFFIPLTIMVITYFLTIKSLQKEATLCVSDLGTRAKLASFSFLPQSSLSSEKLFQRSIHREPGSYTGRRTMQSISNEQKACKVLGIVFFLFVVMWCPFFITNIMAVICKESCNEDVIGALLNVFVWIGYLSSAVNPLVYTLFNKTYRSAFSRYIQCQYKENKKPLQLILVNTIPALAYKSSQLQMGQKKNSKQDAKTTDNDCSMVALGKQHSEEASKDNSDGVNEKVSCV

D2 receptors = D2 receptors (Homo sapiens, UniProt P14416); conditions: cited from earlier work
Chain of D2 receptors (P14416 whole entry): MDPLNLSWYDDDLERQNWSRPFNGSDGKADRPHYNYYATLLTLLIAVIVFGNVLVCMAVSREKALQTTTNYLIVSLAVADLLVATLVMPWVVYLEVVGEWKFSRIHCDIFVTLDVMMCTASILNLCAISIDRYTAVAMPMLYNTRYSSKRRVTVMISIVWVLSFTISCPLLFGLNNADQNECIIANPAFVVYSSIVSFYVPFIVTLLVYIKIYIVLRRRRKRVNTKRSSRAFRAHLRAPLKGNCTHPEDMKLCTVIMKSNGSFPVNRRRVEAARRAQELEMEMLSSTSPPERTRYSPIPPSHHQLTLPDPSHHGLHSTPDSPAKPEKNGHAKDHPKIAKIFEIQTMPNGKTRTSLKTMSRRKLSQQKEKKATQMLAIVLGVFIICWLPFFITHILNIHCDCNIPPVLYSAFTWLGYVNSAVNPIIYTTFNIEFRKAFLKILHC

5-HT transporter (SERT) = 5-HT transporter (SERT) (Homo sapiens, UniProt P31645); conditions: cited from earlier work
Chain of 5-HT transporter (SERT) (P31645 whole entry): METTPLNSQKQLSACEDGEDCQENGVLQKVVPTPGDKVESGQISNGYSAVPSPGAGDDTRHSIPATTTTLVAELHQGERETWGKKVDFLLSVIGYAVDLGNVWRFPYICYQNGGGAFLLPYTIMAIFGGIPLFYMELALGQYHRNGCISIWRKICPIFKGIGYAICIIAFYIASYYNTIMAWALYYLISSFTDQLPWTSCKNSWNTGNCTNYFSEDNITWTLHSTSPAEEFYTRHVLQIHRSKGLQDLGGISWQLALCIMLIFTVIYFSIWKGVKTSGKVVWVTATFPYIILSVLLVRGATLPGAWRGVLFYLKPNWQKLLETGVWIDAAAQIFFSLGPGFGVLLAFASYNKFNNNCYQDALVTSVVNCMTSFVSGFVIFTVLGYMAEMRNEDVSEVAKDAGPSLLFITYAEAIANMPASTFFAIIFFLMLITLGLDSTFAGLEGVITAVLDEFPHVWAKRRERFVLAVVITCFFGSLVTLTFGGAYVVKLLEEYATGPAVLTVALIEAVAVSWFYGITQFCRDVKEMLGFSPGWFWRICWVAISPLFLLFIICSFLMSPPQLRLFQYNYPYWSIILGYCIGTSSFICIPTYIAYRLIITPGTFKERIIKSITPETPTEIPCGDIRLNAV

α2A receptors = biological target: T1, α2A receptors (Homo sapiens, UniProt P08913); conditions: background art; cited from earlier work
T1 sequence (P08913 1-465): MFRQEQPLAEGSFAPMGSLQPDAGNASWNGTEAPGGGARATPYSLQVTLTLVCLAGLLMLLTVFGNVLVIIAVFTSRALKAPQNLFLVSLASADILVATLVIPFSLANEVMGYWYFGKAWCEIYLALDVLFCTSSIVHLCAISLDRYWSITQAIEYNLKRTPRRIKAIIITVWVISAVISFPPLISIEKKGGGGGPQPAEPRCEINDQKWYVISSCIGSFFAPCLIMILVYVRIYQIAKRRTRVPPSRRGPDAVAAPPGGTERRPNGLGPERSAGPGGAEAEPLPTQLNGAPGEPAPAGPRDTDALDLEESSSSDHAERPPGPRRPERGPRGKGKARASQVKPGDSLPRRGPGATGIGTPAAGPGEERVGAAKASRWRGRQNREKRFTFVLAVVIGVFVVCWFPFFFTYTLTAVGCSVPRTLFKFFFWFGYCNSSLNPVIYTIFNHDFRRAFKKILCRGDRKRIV

dopaminergic receptors = experiment: Binding to dopaminergic receptors (in vitro profiling); conditions: in contrast to LSD
[2] = biological target: T2, serotonin 5-HT2A receptor (Homo sapiens, UniProt P28223); conditions: background art; cited from earlier work
T2 sequence (P28223 whole entry): as the sequence (P28223 whole entry) above

5-HT1A receptor = biological target: T3, 5-HT1A receptor (Homo sapiens, UniProt P08908); conditions: background art; cited from earlier work
T3 sequence (P08908 1-422): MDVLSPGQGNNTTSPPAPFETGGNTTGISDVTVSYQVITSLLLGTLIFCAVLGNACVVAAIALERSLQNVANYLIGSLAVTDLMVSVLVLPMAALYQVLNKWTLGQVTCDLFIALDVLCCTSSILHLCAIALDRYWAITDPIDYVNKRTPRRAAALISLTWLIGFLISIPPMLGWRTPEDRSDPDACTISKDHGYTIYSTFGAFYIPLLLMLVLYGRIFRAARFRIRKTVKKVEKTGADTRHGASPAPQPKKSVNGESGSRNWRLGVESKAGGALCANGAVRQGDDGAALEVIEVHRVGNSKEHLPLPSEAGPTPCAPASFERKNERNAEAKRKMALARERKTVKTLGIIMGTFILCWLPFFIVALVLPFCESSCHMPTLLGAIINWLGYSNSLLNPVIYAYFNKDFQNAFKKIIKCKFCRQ

[3] = biological target: T2, serotonin 5-HT2A receptor; experiment: 5-HT2A receptor binding (in vitro profiling at key targets)
[4] = humans, cited from earlier work
[5] = humans (Charalampous, 1966); cited from earlier work
monoamine transporters = experiment: Inhibition of monoamine transport (in vitro profiling); format: biochemical
From the text: Activity of compounds at monoamine transporters are thought to mediate MDMA-like empathogenic effects (Hysek et al., 2012). Importantly, mescaline is a very weak 5-HT2A receptor ligand and high doses are needed to induce psychoactive effects in humans. However, despite its low potency, mescaline can have extraordinarily strong psychedelic effects in humans at high doses and the same is likely the case for the substances developed within the present invention although 10-20-fold higher potency is also possible in some compounds, to be evaluated in detail clinically. Key results of pharmacological profiling of the compounds described herein were: […]

SMILES: COc1cc(CCN)cc(OC)c1OC(F)F.Cl [DFM, 4-Difluoromethoxy-3,5-dimethoxyphenethylamine hydrochloride]
- potency (in words) [1]: relatively potent

SMILES: CN(C)CCc1c[nH]c2ccccc12 [DMT, N,N-dimethyltryptamine]
- agonism / stimulation of the 5-HT2A receptor (in words) (5-HT2A receptor): agonists

SMILES: CCN(CC)C(=O)[C@@H]1C=C2c3cccc4[nH]cc(c34)C[C@H]2N(C)C1 [LSD, lysergic acid diethylamide]
- affinity / activity at D2 receptors (in words) (D2 receptors): has activity
- agonism / stimulation of the 5-HT2A receptor (in words) (5-HT2A receptor): agonists; also recorded: potently stimulates

SMILES: CN(C)CCc1c[nH]c2cccc(O)c12 [Psilocin]
- interaction with / inhibition of SERT (in words) (5-HT transporter (SERT)): inhibits
- agonism / stimulation of the 5-HT2A receptor (in words) (5-HT2A receptor): stimulates

SMILES: COc1cc(CCN)cc(OC)c1OCC(F)(F)F.Cl [TFE, 3,5-Dimethoxy-4-(2,2,2-trifluoroethoxy)phenethylamine hydrochloride]
- potency (in words) [1]: relatively potent

SMILES: COc1cc(CCN)cc(OC)c1OC [mescaline]
- affinity / activity at D2 receptors (in words) (D2 receptors): no affinity
- interaction with / inhibition of SERT (in words) (5-HT transporter (SERT)): do not interact
- binding to α2A receptors (in words) (α2A receptors): rather low concentration range
- binding to dopaminergic receptors (in words) (dopaminergic receptors): did not relevantly bind
- binding to 5-HT2A receptor (in words) [2]: rather low concentration range
- binding to 5-HT1A receptor (in words) (5-HT1A receptor): rather low concentration range
- 5-HT2A receptor binding affinity / binding potency (in words) [3]: very weak
- agonism / stimulation of the 5-HT2A receptor (in words) (5-HT2A receptor): agonists
- subjective effects last (duration) ([4]; dose-dependently): 10 to 16 h
- subjective effects appear (onset) ([4]; psychoactive doses): ≤ 30 min
- subjective effects peak ([4]; psychoactive doses): 4 h
- doses needed to induce a full psychedelic experience [4]: 200 to 800 mg
- eliminated in urine unchanged, fraction of the dose ingested [5]: up to two thirds
- plasma half-life [5]: approximately 6 hours
- inhibition of monoamine transport (in words) (monoamine transporters): did not inhibit monoamine transport
